From ChEMBL document CHEMBL2034838, “Quinazolino-benzothiazoles: fused pharmacophores as anticonvulsant agents” (Eur J Med Chem, 2012)

Legend:
Mus musculus [1] = assay: Anticonvulsant activity in Swiss albino mouse assessed as decrease in time of maximum electroshock-induced tonic hind leg extension administered as ip at equimolar dose of phenytoin 30 mins before maximum electroshock seizure stimulation measured after 0.5 hrs (reference value: 15.40 +/- 0.50 sec); format: functional, Hindlimb
Mus musculus [2] = assay: Anticonvulsant activity in Swiss albino mouse assessed as decrease in time of subcutaneous PTZ-induced clonic hind leg extension administered as ip at equimolar dose of diazepam 30 mins before subcutaneous PTZ challenge measured after 0.5 hrs (reference value: 76.80 +/- 2.41 sec); format: functional, Hindlimb
Mus musculus [3] = organism: Mus musculus; assay: Neurotoxicity in Swiss albino mouse by rotarod test; format: toxicity, organism-based; conditions: in vivo
Mus musculus [4] = assay: Hepatotoxicity in Swiss albino mouse assessed as change in liver alkaline phosphatase level at 25 mg/kg/day for 15 days; format: toxicity, organism-based; conditions: in vivo, 360 h
Mus musculus [5] = assay: Hepatotoxicity in Swiss albino mouse assessed as change in liver SGOT level at 25 mg/kg/day for 15 days; format: toxicity, organism-based; conditions: in vivo, 360 h
Mus musculus [6] = assay: Hepatotoxicity in Swiss albino mouse assessed as change in liver SGPT level at 25 mg/kg/day for 15 days; format: toxicity, organism-based; conditions: in vivo, 360 h
Mus musculus [7] = assay: Hepatotoxicity in Swiss albino mouse assessed as change in liver total protein level assessed per 100 ml at 25 mg/kg/day for 15 days; format: toxicity, organism-based; conditions: in vivo, 360 h
Mus musculus [8] = assay: Anticonvulsant activity in ip dosed Swiss albino mouse assessed as decrease in time of subcutaneous PTZ-induced clonic hind leg extension administered 30 mins before subcutaneous PTZ challenge measured after 0.5 hrs (reference value: 76.80 +/- 2.41 sec); format: functional, Hindlimb

Compound | Time (Mus musculus [1]) [s] | Time (Mus musculus [2]) [s] | Activity (Mus musculus [3]) | Activity (Mus musculus [4]) | Activity (Mus musculus [5]) | Activity (Mus musculus [6]) | Activity (Mus musculus [7]) [g] | Time (Mus musculus [8]) [s]
CCc1nc2ccc(Br)cc2c(=O)n1-c1nc2c(OC)cccc2s1 | 10.2 | 98.12 | Non-toxic | Non-toxic | Non-toxic | Non-toxic | 1.82 | –
CCc1nc2ccc(Br)cc2c(=O)n1-c1nc2ccccc2s1 | 7.4 | 91.6 | Non-toxic | Non-toxic | Non-toxic | Non-toxic | 1.82 | –
CCc1nc2ccc(Br)cc2c(=O)n1-c1nc2cc(Cl)ccc2s1 | 8.6 | 93 | Non-toxic | Non-toxic | Non-toxic | Non-toxic | 1.75 | –
CCc1nc2ccc(Br)cc2c(=O)n1-c1nc2cc(OC)ccc2s1 | 10.6 | 89.8 | – | – | – | – | – | –
CCc1nc2ccc(Br)cc2c(=O)n1-c1nc2cc(C)ccc2s1 | 11.2 | 93.2 | – | – | – | – | – | –
CCc1nc2ccc(Br)cc2c(=O)n1-c1nc2c(C)cc(C)cc2s1 | 11.8 | 91.6 | – | – | – | – | – | –
CCc1nc2ccc(Br)cc2c(=O)n1-c1nc2ccc([N+](=O)[O-])cc2s1 | 12 | 91 | – | – | – | – | – | –
CCc1nc2ccc(Br)cc2c(=O)n1-c1nc2c(C)cccc2s1 | 10.5 | 95.23 | – | – | – | – | – | –
CCc1nc2ccc(Br)cc2c(=O)n1-c1nc2ccc(OC)cc2s1 | 9.7 | 99.45 | Non-toxic | Non-toxic | Non-toxic | Non-toxic | 1.78 | –
CCOc1cccc2sc(-n3c(CC)nc4ccc(Br)cc4c3=O)nc12 | 10.1 | 98 | Non-toxic | Non-toxic | Non-toxic | Non-toxic | 1.82 | –
CN1C(=O)CN=C(c2ccccc2)c2cc(Cl)ccc21 [DIAZEPAM] | – | – | Non-toxic | – | – | – | – | 111.6
